In patent US20220378923A1, “BET DEGRADER” (KYOWA KIRIN CO., LTD., priority 2019, published 2022):
Where two headings read alike, the source gives them in different places.

Key:
[1] = test system: SU-DHL-4 cells; experiment: Inhibitory effect on cell viability in SU-DHL-4 cell line (Test Example 1); type: cell-based, human; conditions: 72 hours; for IC50: SU-DHL-4 (wild type) cells, calculated using the measurement results of test example 1, read-out: SU-DHL-4 WT IC50; for IC90: SU-DHL-4 cells, Cell Counting Kit-8, concentration showing 90% inhibition of cell viability, read-out: SU-DHL-4 Cell Viability Inhibition Rate IC90
Method in brief: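 SU-DHL-4 cells were grown at 37° C. under 5% CO2 in RPMI1640 with 10 vol % heat-inactivated FBS plus penicillin/streptomycin, seeded and precultured for 18 to 25 hours, then exposed to test compound at 0.1 vol % DMSO for 72 hours. Viability was read with Cell Counting Kit-8 by absorbance at 450 nm.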

[2] = test system: MYC mRNA expression in SU-DHL-4 cells; experiment: Suppressive effect on MYC mRNA expression (Test Example 2); type: cell-based, human; conditions: test compound 100 nmol/L, 6 hours, qRT-PCR corrected by ACTB, GAPDH; for inhibition at 0.1 µM: Homo sapiens, HPRT1, read-out: Suppression Rate of MYC mRNA Expression (%); for Suppression Rate of MYC mRNA Expression (%): HPRT1
Method in brief: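 SU-DHL-4 cells were treated for 6 h at 37 °C with compound (0.1% DMSO final). MYC mRNA was measured by TaqMan qRT-PCR and normalised to the geometric mean of ACTB, GAPDH and HPRT1. Suppression was calculated relative to untreated wells.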

Compound | IC50 ([1]; Homo sapiens) | inhibition at 0.1 µM [2] | IC50 [1] | IC90 [1] | Suppression Rate of MYC mRNA Expression (%) [2]
Cc1sc2c(c1C)C(c1ccc(NC(=O)C#CCNC(=O)c3ccc(C4=NCc5nnc(C)n5-c5sc(C)c(C)c54)cc3)cc1)=NCc1nnc(C)n1-2 [Compound 14e, N-(4-Oxo-4-((4-(2,3,9-trimethyl-6H-thieno[3,2-f][1,2,4]triazolo[4,3-a][1,4]diazepin-4-yl)phenyl)amino)but-2-yn-1-yl)-4-(2,3,9-trimethyl-6H-thieno[3,2-f][1,2,4]triazolo[4,3-a][1,4]diazepin-4-yl)benzamide] | 0.21 nM | 96.7% |  |  | 
CCC(=O)N1c2ccccc2[C@H](Nc2ccc(-n3cc(CNC(=O)N4CCC(N[C@@H]5C[C@H](C)N(C(=O)CC)c6ccccc65)CC4)nn3)cc2)C[C@@H]1C (relative stereo) [Compound 10b, 4-(((2S*,4R*)-2-Methyl-1-propionyl-1,2,3,4-tetrahydroquinolin-4-yl)amino)-N-((1-(4-(((2S,4R)-2-methyl-1-propionyl-1,2,3,4-tetrahydroquinolin-4-yl)amino)phenyl)-1H-1,2,3-triazol-4-yl)methyl)piperidine-1-carboxamide] | 0.34 nM | 96.6% |  |  | 
CCC(=O)N1c2ccccc2[C@H](Nc2ccc(NC(=O)CNC(=O)Nc3ccc(C4=NCc5nnc(C)n5-c5sc(C)c(C)c54)cc3)cc2)C[C@@H]1C [Compound 14f, N-(4-(((2S,4R)-2-Methyl-1-propionyl-1,2,3,4-tetrahydroquinolin-4-yl)amino)phenyl)-2-(3-(4-(2,3,9-trimethyl-6H-thieno[3,2-f][1,2,4]triazolo[4,3-a][1,4]diazepin-4-yl)phenyl)ureido)acetamide] | 0.14 nM | 97.3% |  |  | 
CCC(=O)N1c2ccccc2[C@H](Nc2ccc(NC(=O)C3CN(C(=O)c4ccc(N[C@@H]5C[C@H](C)N(C(=O)CC)c6ccccc65)cc4)C3)cc2)C[C@@H]1C (relative stereo) [Compound 2h, 1-(4-{[(2S,4R)-2-Methyl-1-propionyl-1,2,3,4-tetrahydroquinolin-4-yl]amino}benzoyl)-N-(4-{[(2S*,4R*)-2-methyl-1-propionyl-1,2,3,4-tetrahydroquinolin-4-yl]amino}phenyl)azetidine-3-carboxamide] | 0.03 nM | 98.2% |  |  | 
CCC(=O)N1c2ccccc2[C@H](N[C@H]2CC[C@H](NC(=O)C#CCNC(=O)[C@H]3CC[C@H](N[C@@H]4C[C@H](C)N(C(=O)CC)c5ccccc54)CC3)CC2)C[C@@H]1C (relative stereo) [Compound 9d, (1R,4R)-4-(((2S*,4R*)-2-Methyl-1-propionyl-1,2,3,4-tetrahydroquinolin-4-yl)amino)-N-(4-(((1R,4R)-4-(((2S,4R)-2-methyl-1-propionyl-1,2,3,4-tetrahydroquinolin-4-yl)amino)cyclohexyl)amino)-4-oxobut-2-yn-1-yl)cyclohexane-1-carboxamide] |  |  | 0.75 nM | 0.93 nM | 98.0%
CCC(=O)N1c2ccccc2[C@H](Nc2ccc(NC(=O)CCCC(=O)NC3CCC(N[C@@H]4C[C@H](C)N(C(=O)CC)c5ccccc54)CC3)cc2)C[C@@H]1C (stereo partly drawn) [Compound 7o, N^1-((1R,4r)-4-(((2S,4R)-2-Methyl-1-propionyl-1,2,3,4-tetrahydroquinolin-4-yl)amino)cyclohexyl)-N^5-(4-(((2S,4R)-2-methyl-1-propionyl-1,2,3,4-tetrahydroquinolin-4-yl)amino)phenyl)glutaramide] |  |  | 0.53 nM | 1.15 nM | 97.4%
CCC(=O)N1c2ccccc2[C@H](NCCCCCCCC(=O)Nc2ccc(N[C@@H]3C[C@H](C)N(C(=O)CC)c4ccccc43)cc2)C[C@@H]1C (relative stereo) [Compound 12h, 8-(((2S*,4R*)-2-Methyl-1-propionyl-1,2,3,4-tetrahydroquinolin-4-yl)amino)-N-(4-(((2S,4R)-2-methyl-1-propionyl-1,2,3,4-tetrahydroquinolin-4-yl)amino)phenyl)octanamide] | 3.11 nM | 96.5% |  |  | 
Cc1sc2c(c1C)C(c1ccc(C(=O)NCCCNC(=O)c3ccc(C4=N[C@@H](CC(=O)OC(C)(C)C)c5nnc(C)n5-c5sc(C)c(C)c54)cc3)cc1)=N[C@@H](CC(=O)OC(C)(C)C)c1nnc(C)n1-2 [Compound 1b, Di-tert-butyl 2,2′-[(6S,6′S)-({[propane-1,3-diylbis(azanediyl)]bis(carbonyl)}bis(4,1-phenylene))bis(2,3,9-trimethyl-6H-thieno[3,2-f][1,2,4]triazolo[4,3-a][1,4]diazepine-4,6-diyl)]diacetate] | 0.65 nM | 98.4% |  |  | 
CCC(=O)N1c2ccccc2[C@H](Nc2ccc(C(=O)NCCCNC(=O)c3ccc(N[C@@H]4C[C@H](C)N(C(=O)CC)c5ccccc54)cc3)cc2)C[C@@H]1C (relative stereo) [Compound 1a, N,N′-(Propane-1,3-diyl)bis(4-{[(2S*,4R*)-2-methyl-1-propionyl-1,2,3,4-tetrahydroquinolin-4-yl]amino}benzamide)] | 1.13 nM | 96.7% |  |  | 
Cc1sc2c(c1C)C(c1ccc(Cl)cc1)=N[C@@H](CC(=O)NCCOCCOCCOCCOCCOCCOCCOCCNC(=O)C[C@@H]1N=C(c3ccc(Cl)cc3)c3c(sc(C)c3C)-n3c(C)nnc31)c1nnc(C)n1-2 [compound 2, reference compound] |  |  | 235 nM | > 10000 nM | 57.7%
CCC(=O)N1c2ccccc2[C@H](Nc2ccc(C(=O)N3CC(C(=O)N[C@H]4CC[C@H](N[C@@H]5C[C@H](C)N(C(=O)CC)c6ccccc65)CC4)C3)cc2)C[C@@H]1C [Compound 8r, 1-(4-(((2S,4R)-2-Methyl-1-propionyl-1,2,3,4-tetrahydroquinolin-4-yl)amino)benzoyl)-N-((1R,4R)-4-(((2S,4R)-2-methyl-1-propionyl-1,2,3,4-tetrahydroquinolin-4-yl)amino)cyclohexyl)azetidine-3-carboxamide] |  |  | 0.3 nM | 0.47 nM | 96.7%
CCC(=O)N1c2ccccc2[C@H](Nc2ccc(C(=O)NCC(=O)CNC(=O)c3ccc(N[C@@H]4C[C@H](C)N(C(=O)CC)c5ccccc54)cc3)cc2)C[C@@H]1C [Compound 1l, N,N′-(2-Oxopropane-1,3-diyl)bis(4-{[(2S,4R)-2-methyl-1-propionyl-1,2,3,4-tetrahydroquinolin-4-yl]amino}benzamide)] | 0.03 nM | 98.5% |  |  | 
CCC(=O)N1c2ccccc2[C@H](Nc2ccc(C(=O)NC3CCN(C(=O)c4ccc(N[C@@H]5C[C@H](C)N(C(=O)CC)c6ccccc65)cc4)CC3)cc2)C[C@@H]1C (relative stereo) [Compound 1c, 4-{[(2S*,4R*)-2-Methyl-1-propionyl-1,2,3,4-tetrahydroquinolin-4-yl]amino}-N-[1-(4-{[(2S*,4R*)-2-methyl-1-propionyl-1,2,3,4-tetrahydroquinolin-4-yl]amino}benzoyl)piperidin-4-yl]benzamide] | 2.93 nM | 97.3% |  |  | 
CCC(=O)N1c2ccccc2[C@H](Nc2ccc(SCCNC(=O)c3ccc(C4=N[C@@H](CC(=O)OCCN(C)C)c5nnc(C)n5-c5sc(C)c(C)c54)cc3)cc2)C[C@@H]1C [Compound 13a, 2-(Dimethylamino)ethyl 2-((S)-2,3,9-trimethyl-4-(4-((2-((4-(((2S,4R)-2-methyl-1-propionyl-1,2,3,4-tetrahydroquinolin-4-yl)amino)phenyl)thio)ethyl)carbamoyl)phenyl)-6H-thieno[3,2-f][1,2,4]triazolo[4,3-a][1,4]diazepin-6-yl)acetate] | 0.26 nM | 97.6% |  |  | 
CCC(=O)N1c2ccccc2[C@H](Nc2ccc(NC(=O)CCCC(=O)Nc3cccc(Oc4ccc(NS(=O)(=O)CC)cc4-c4cn(C)c(=O)cc4OC)c3)cc2)C[C@@H]1C [Compound 16j, N^1-(3-(4-(Ethylsulfonamide)-2-(4-methoxy-1-methyl-6-oxo-1,6-dihydropyridin-3-yl)phenoxy)phenyl)-N5-(4-(((2S,4R)-2-methyl-1-propionyl-1,2,3,4-tetrahydroquinolin-4-yl)amino)phenyl)glutaramide] |  |  | 0.5 nM | 3.09 nM | 92.4%
CCC(=O)N1c2ccccc2[C@H](Nc2ccc(NC(=O)CCCC(=O)NC3CCC(Cn4cc(-c5c(C)noc5C)ccc4=O)CC3)cc2)C[C@@H]1C (stereo partly drawn) [Compound 16p, N^1-((1r,4r)-4-((5-(3,5-Dimethylisoxazol-4-yl)-2-oxopyridin-1(2H)-yl)methyl)cyclohexyl)-N5-(4-(((2S,4R)-2-methyl-1-propionyl-1,2,3,4-tetrahydroquinolin-4-yl)amino)phenyl)glutaramide] |  |  | 0.27 nM | 0.63 nM | 96.2%
CCC(=O)N1c2ccccc2[C@H](Nc2ccc(-c3nnc(CNC(=O)C4CCN(Cc5cc(O)cc(-c6c(C)noc6C)c5)CC4)o3)cc2)C[C@@H]1C [Compound 12a, 1-(3-(3,5-Dimethylisoxazol-4-yl)-5-hydroxybenzyl)-N-((5-(4-(((2S,4R)-2-methyl-1-propionyl-1,2,3,4-tetrahydroquinolin-4-yl)amino)phenyl)-1,3,4-oxadiazol-2-yl)methyl)piperidine-4-carboxamide] | 0.51 nM | 98.5% |  |  | 
